Among the test systems are A549 NSCLC; OVCAR-5 ovarian; HOP-92 NSCLC; HT29 colon; ACHN renal; T-47D breast; MALME-3M melanoma; KM12 colon; PC-3 prostate; K-562 leukemia.
Holding throughout (assay): inhibition of tumour cell growth, NCI panel, 48 h

“And” between values parts separate entries of the source, which are not always exact repeats. Identical values can stand only once.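 Growth conditions: 96-well plates. Treatment: test compound, 48 hours, 5 concentrations. Analysis: linear interpolation between bracketing concentrations; unreached endpoints set to highest concentration. GI50 marks 50% less growth. Definition used: TGI = concentration required for complete inhibition of growth.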

With `COc1cc(NC(=O)c2ccccc2Nc2ccnc(C(F)(F)F)c2)cc(OC)c1OC`, the GI50 with A549 NSCLC is 58.1 µM; in the experiment with OVCAR-5 ovarian, over 100 µM; with HOP-92 NSCLC it was 23.2 µM; in the experiment with HT29 colon, 65 µM; in the experiment on ACHN renal it was 99.9 µM; in the experiment with T-47D breast it was 17.7 µM. Moreover, the GI50 with MALME-3M melanoma was 82.2 µM; in the experiment with KM12 colon, 54.9 µM; with PC-3 prostate, 35.3 µM; in the experiment on K-562 leukemia, 52.8 µM. The TGI with A549 NSCLC is over 100 µM; in the experiment with OVCAR-5 ovarian, over 100 µM; in the experiment on HOP-92 NSCLC it was 74.1 µM; in the experiment with HT29 colon, over 100 µM; with ACHN renal it was over 100 µM; in the experiment on T-47D breast, 91.9 µM. In addition, the TGI with MALME-3M melanoma, in the experiment with KM12 colon, in the experiment on PC-3 prostate and in the experiment with K-562 leukemia was over 100 µM in each case.
Turning to `C#Cc1ccc(-n2c(/C=C/c3ccc4ccccc4c3)nc3ncccc3c2=O)cc1`, the GI50 with A549 NSCLC is 2.73 µM; with OVCAR-5 ovarian, 6.88 µM; in the experiment on HOP-92 NSCLC, 1.63 µM; with HT29 colon it was 3.26 µM; in the experiment with ACHN renal, 2.57 µM; with T-47D breast, 3.9 µM. Besides, the GI50 in the experiment with MALME-3M melanoma was 4.97 µM; in the experiment with KM12 colon it was 2.95 µM; in the experiment with PC-3 prostate, 2.35 µM; in the experiment with K-562 leukemia, 2.43 µM. In addition, the TGI was over 100 µM in the experiment with A549 NSCLC; over 100 µM in the experiment on OVCAR-5 ovarian; 6.89 µM with HOP-92 NSCLC; over 100 µM with HT29 colon; over 100 µM in the experiment with ACHN renal; over 100 µM with T-47D breast. The TGI in the experiment with MALME-3M melanoma, in the experiment on KM12 colon, in the experiment on PC-3 prostate and in the experiment with K-562 leukemia was over 100 µM each time.
`Cc1cn2c(/C=C3/C(=O)Nc4ccc(Cl)cc43)c(C)nc2s1`: the GI50 in the experiment with A549 NSCLC was 1.05 µM; in the experiment with OVCAR-5 ovarian, 1.91 µM; in the experiment on HOP-92 NSCLC it was 16 µM; in the experiment on ACHN renal it was 0.185 µM; with T-47D breast, 4.09 µM; in the experiment on MALME-3M melanoma, 1.22 µM. For the same compound, the GI50 in the experiment with KM12 colon is 1.17 µM; with PC-3 prostate, 0.0447 µM. Also, the TGI in the experiment on A549 NSCLC is over 49.1 µM; in the experiment with OVCAR-5 ovarian, over 43.4 µM; in the experiment on HOP-92 NSCLC, 70.1 µM; in the experiment with HT29 colon, over 56.8 µM; with ACHN renal it was 48.4 µM; with T-47D breast, over 75 µM. The TGI with KM12 colon is 24 µM; in the experiment with K-562 leukemia, over 100 µM.
As to `COc1cc(NC(C)CCCN2C(=O)c3ccccc3C2=O)c2ncccc2c1OC` (stereo unspecified), the GI50 in the experiment on A549 NSCLC was 33 µM; in the experiment with OVCAR-5 ovarian it was 82.6 µM; with HOP-92 NSCLC, 18.2 µM; with HT29 colon, 36.3 µM; in the experiment on ACHN renal, 29.9 µM; in the experiment with T-47D breast it was 35.7 µM. In addition, the GI50 with MALME-3M melanoma is 22.9 µM; in the experiment with KM12 colon, 29.7 µM; in the experiment with PC-3 prostate, 24.9 µM; with K-562 leukemia, 83.9 µM. In addition, the TGI in the experiment with A549 NSCLC, in the experiment with OVCAR-5 ovarian, in the experiment on HOP-92 NSCLC, in the experiment with HT29 colon, in the experiment with ACHN renal and with T-47D breast was over 100 µM in each case. In addition, the TGI is 58.3 µM with MALME-3M melanoma, over 100 µM in the experiment with KM12 colon, 71.1 µM in the experiment with PC-3 prostate and over 100 µM with K-562 leukemia.
As for `CNc1ncc2cc(-c3cc(NC(=O)NCCC(C)(C)C)c(F)cc3C)c(C)nc2n1`, the GI50 is 0.754 µM and 0.598 µM in the experiment on A549 NSCLC; 0.0761 µM and 0.083 µM with OVCAR-5 ovarian; 0.0571 µM and 0.0903 µM in the experiment with HOP-92 NSCLC; 0.0177 µM and 0.0194 µM in the experiment with HT29 colon; 0.198 µM and 0.262 µM in the experiment with ACHN renal; 0.819 µM and 1.51 µM in the experiment with T-47D breast. For the same compound, the GI50 was < 0.01 µM and 0.00462 µM in the experiment with MALME-3M melanoma; 0.405 µM and 0.448 µM with KM12 colon; 17.4 µM and 6.93 µM with PC-3 prostate; 0.227 µM and 0.33 µM with K-562 leukemia. Further, the TGI with A549 NSCLC was over 100 µM; with OVCAR-5 ovarian it was over 100 µM; with HOP-92 NSCLC it was 0.423 µM and 0.511 µM; with HT29 colon, over 41.5 µM; in the experiment with ACHN renal, over 24.6 µM; with T-47D breast, 25.1 µM and > 10 µM. In addition, the TGI with MALME-3M melanoma is < 0.011 µM and 0.0522 µM; in the experiment with KM12 colon it was over 100 µM; in the experiment with PC-3 prostate, over 100 µM; in the experiment with K-562 leukemia, over 100 µM.
With `O=C1NC(=N[C@H](CO)c2ccccc2)S/C1=C\c1ccc2ncccc2c1`, the GI50 with A549 NSCLC was 4.62 µM; with OVCAR-5 ovarian it was 4.96 µM; in the experiment with HOP-92 NSCLC, 4.59 µM; in the experiment on HT29 colon, 6.1 µM; in the experiment with ACHN renal, 4.91 µM; in the experiment with T-47D breast, 4.18 µM. The GI50 is 6.21 µM with MALME-3M melanoma, 5.77 µM in the experiment on KM12 colon, 4.07 µM with PC-3 prostate and 4 µM in the experiment on K-562 leukemia. Further, the TGI with A549 NSCLC is 18.8 µM; in the experiment with OVCAR-5 ovarian it was 20.1 µM; with HOP-92 NSCLC, 18.7 µM; with HT29 colon, over 25 µM; in the experiment with ACHN renal it was over 24 µM; with T-47D breast, over 24.1 µM. For the same compound, the TGI in the experiment with MALME-3M melanoma is 22.4 µM; in the experiment with KM12 colon it was over 21.4 µM; in the experiment with PC-3 prostate it was over 25 µM; with K-562 leukemia, over 25 µM.
`O=C1C(Br)=CC2(C=C1Br)CCNc1c(O)c3c4c(c12)=NCCC=4C=N3`: the TGI with A549 NSCLC was determined as 3.09 µM; in the experiment with OVCAR-5 ovarian, 1.28 µM; with HOP-92 NSCLC, 0.185 µM; in the experiment with HT29 colon, 0.168 µM; with ACHN renal it was 0.307 µM; with T-47D breast it was 0.165 µM. Also, the TGI came out at 0.0946 µM in the experiment on MALME-3M melanoma, 1.61 µM in the experiment with KM12 colon, 0.993 µM in the experiment on PC-3 prostate and 0.0921 µM in the experiment with K-562 leukemia.
As for `CS(=O)(=O)N1CCc2c(-c3cnc(N)nc3)nc(N3CCOCC3)nc21`, the GI50 with A549 NSCLC is 0.644 µM and 0.413 µM; in the experiment with OVCAR-5 ovarian, 0.685 µM and 0.461 µM; in the experiment with HOP-92 NSCLC, 0.102 µM and 0.112 µM; in the experiment with HT29 colon, 0.26 µM and 0.307 µM; with ACHN renal, 0.735 µM and 0.677 µM; with T-47D breast, 0.041 µM and 0.0468 µM. Also, the GI50 with MALME-3M melanoma was 0.619 µM and 0.488 µM; in the experiment on KM12 colon it was 2.1 µM and 2.25 µM; with PC-3 prostate, 0.279 µM and 0.258 µM; in the experiment on K-562 leukemia, > 6.98 µM and 5.3 µM. Moreover, the TGI in the experiment with A549 NSCLC is > 10 µM and 5.45 µM; in the experiment on OVCAR-5 ovarian, over 62.6 µM; in the experiment with HOP-92 NSCLC it was 0.641 µM and 1.35 µM; with HT29 colon it was over 77.5 µM; in the experiment on ACHN renal, over 100 µM; in the experiment on T-47D breast, 0.399 µM and 0.463 µM. Also, the TGI is > 6.87 µM and 4.87 µM in the experiment on MALME-3M melanoma; over 100 µM in the experiment with KM12 colon; > 5.95 µM and 11 µM in the experiment with PC-3 prostate; over 100 µM in the experiment with K-562 leukemia.

The values above are taken from PubChem BioAssay (NCI).
